Source: ChEMBL document CHEMBL5465560, “Selectivity Literature for EUbOPEN Chemogenomic Library” (2024)

Assays:
[1] = molecular target: T1, Bone morphogenetic protein receptor type-2 (Homo sapiens) (UniProt Q13873); experiment: Selectivity interaction (KinomeScan (DiscoverX)) EUB0000607a BMPR2; conditions: at 10 µM
T1 sequence (whole entry): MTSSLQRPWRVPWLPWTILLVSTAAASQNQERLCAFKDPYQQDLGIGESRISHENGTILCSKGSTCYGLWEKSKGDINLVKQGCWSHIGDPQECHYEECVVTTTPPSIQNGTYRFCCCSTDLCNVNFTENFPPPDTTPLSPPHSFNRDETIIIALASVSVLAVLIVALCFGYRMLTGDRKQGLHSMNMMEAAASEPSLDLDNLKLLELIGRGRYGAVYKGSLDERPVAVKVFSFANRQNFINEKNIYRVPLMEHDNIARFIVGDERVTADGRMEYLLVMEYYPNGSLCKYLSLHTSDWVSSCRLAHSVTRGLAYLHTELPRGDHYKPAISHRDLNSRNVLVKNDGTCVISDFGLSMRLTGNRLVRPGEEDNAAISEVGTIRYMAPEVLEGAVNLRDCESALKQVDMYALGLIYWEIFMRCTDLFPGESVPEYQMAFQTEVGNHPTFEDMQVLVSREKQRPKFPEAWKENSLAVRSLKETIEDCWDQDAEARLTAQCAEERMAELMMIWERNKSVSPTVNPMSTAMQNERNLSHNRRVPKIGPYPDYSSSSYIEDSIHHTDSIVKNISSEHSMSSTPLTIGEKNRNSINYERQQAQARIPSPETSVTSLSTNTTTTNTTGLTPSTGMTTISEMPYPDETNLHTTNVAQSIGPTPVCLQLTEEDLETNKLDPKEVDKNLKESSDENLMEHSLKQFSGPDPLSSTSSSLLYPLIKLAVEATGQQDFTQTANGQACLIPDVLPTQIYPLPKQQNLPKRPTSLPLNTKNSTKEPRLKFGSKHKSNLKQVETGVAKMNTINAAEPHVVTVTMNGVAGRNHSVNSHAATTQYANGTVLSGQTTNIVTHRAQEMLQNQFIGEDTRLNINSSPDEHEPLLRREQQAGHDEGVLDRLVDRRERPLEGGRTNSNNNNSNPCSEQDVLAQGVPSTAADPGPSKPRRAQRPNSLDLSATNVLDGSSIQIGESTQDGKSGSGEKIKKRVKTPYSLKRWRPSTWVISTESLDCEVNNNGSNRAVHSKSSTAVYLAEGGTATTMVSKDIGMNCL

[2] = molecular target: T2, Serine/threonine-protein kinase Nek1 (Homo sapiens) (UniProt Q96PY6); experiment: Selectivity interaction (SelectScreen profiling (Invitrogen)) EUB0000607a NEK1; conditions: at 2 µM
T2 sequence (whole entry): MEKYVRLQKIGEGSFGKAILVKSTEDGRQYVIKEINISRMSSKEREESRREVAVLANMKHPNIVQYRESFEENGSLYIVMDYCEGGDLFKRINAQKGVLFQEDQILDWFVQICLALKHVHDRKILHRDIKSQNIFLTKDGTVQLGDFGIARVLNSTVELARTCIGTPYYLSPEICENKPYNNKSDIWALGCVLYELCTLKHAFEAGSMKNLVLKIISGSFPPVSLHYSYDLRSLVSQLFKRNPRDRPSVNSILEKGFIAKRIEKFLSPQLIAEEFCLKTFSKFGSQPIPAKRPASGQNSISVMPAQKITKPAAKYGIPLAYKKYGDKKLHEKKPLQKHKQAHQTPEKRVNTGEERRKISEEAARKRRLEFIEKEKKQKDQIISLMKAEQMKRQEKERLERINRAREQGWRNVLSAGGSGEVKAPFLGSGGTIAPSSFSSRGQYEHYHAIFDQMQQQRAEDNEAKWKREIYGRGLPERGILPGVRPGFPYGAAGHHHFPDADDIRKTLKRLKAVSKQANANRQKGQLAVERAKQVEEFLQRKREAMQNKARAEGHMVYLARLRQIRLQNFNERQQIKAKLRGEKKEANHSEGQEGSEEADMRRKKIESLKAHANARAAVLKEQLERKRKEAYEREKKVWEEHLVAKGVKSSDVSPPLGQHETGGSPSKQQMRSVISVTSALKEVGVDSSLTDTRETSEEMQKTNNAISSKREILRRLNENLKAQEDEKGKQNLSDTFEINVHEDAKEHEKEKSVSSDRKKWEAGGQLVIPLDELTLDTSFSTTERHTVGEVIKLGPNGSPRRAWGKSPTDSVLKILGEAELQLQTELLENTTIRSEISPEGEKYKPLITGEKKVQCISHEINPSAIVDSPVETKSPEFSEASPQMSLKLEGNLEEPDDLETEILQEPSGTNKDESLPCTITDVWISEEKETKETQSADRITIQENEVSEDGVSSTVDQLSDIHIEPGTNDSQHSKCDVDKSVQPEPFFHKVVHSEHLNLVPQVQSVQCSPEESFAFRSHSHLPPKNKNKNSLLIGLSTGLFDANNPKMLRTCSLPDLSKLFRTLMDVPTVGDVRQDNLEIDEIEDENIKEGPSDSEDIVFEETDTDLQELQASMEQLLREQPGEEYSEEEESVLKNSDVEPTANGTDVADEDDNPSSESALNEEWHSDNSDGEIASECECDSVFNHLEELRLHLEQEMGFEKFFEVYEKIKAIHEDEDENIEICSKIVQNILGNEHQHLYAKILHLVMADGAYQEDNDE

**Q.** For CNC(=O)Nc1ccc(-c2nc(N3CC4CCC(C3)O4)c3cnn(C4CCC5(CC4)OCCO5)c3n2)cc1, which % of control [1] is on record?
**A.** The % of control was 83%.

**Q.** And the % of inhibition [2]?
**A.** The % of inhibition was 7%.
